{"source": "paper PMC8284666", "about": "“Biochemical characterization of protease activity of Nsp3 from SARS-CoV-2 and its inhibition by nanobodies” (PLoS ONE, 2021)", "key": {"PLpro from SARS-CoV-2": {"target": "PLpro from SARS-CoV-2 (Severe acute respiratory syndrome coronavirus 2, UniProt P0DTC1)", "test": "biochemical", "conditions": "for inhibition at 10 µM: read-out: percentage inhibition in the HTS"}, "Nsp3^core [1]": {"target": "T1, Nsp3^core (Severe acute respiratory syndrome coronavirus 2, UniProt P0DTC1)", "test": "biochemical"}, "[2]": {"system": "panel of 42 human DUBs and the viral ovarian tumor (vOTU)", "assay_type": "biochemical", "conditions": "tested at 10 and 1 μM; result in words"}, "Nsp3^core [3]": {"target": "T1, Nsp3^core", "assay_type": "biochemical"}, "PLpro^CoV-1": {"system": "PLpro^CoV-1", "conditions": "read-out: IC50 against PLpro^CoV-1; cited from earlier work"}, "SARS-CoV-2 PLpro": {"system": "SARS-CoV-2 PLpro", "conditions": "cited from earlier work"}, "[4]": {"target": "SARS-CoV-2 Nsp3 residues 743-1072 (PL-pro), purified, tags removed (SARS-CoV-2, Wuhan-Hu-1 (MN908947.3), UniProt P0DTD1)", "test": "ITC", "conditions": "both partners purified"}, "[5]": {"conditions": "screened in duplicate at 10 μM, hit criterion"}}, "note": "Where two headings read alike, the source gives them in different places."}
{"molecule": "Nc1nc2nc[nH]c2c(=S)[nH]1", "note": "[Thioguanine]", "values": [{"measurement": "IC50", "setting": "PLpro from SARS-CoV-2", "result": 4540, "unit": "nM"}]}
{"molecule": "Auranofin", "values": [{"measurement": "IC50", "setting": "PLpro from SARS-CoV-2; read-out: IC50 against PLpro", "result": "~1000", "unit": "nM"}, {"measurement": "IC50", "setting": "Nsp3^core [1]", "result": "~1000", "unit": "nM"}, {"measurement": "selectivity / off-target inhibition in the DUB panel", "setting": "[2]", "result": "inhibited–at different extents–several other human DUBs"}]}
{"molecule": "GRL-0617", "values": [{"measurement": "inhibition of viral polypeptide (Nsp1-2 FL) cleavage by Nsp3", "setting": "Nsp3^core [3]", "result": "able to inhibit cleavage of the viral polypeptide"}, {"measurement": "IC50", "setting": "PLpro^CoV-1", "result": 600, "unit": "nM"}, {"measurement": "IC50", "setting": "SARS-CoV-2 PLpro", "result": "~2000", "unit": "nM"}]}
{"molecule": "O=c1sn(-c2cccc3ccccc23)c(=O)n1Cc1ccccc1", "note": "[Tideglusib]", "values": [{"measurement": "IC50", "setting": "PLpro from SARS-CoV-2", "result": 210, "unit": "nM"}, {"measurement": "inhibition at 10 µM", "setting": "PLpro from SARS-CoV-2", "result": "> 50", "unit": "%"}, {"measurement": "IC50", "setting": "Nsp3^core [1]", "result": 1480, "unit": "nM"}, {"measurement": "selectivity / off-target inhibition in the DUB panel", "setting": "[2]", "result": "inhibited–at different extents–several other human DUBs"}]}
{"molecule": "CCN(CC)C(=S)SSC(=S)N(CC)CC", "note": "[Disulfiram]", "values": [{"measurement": "IC50", "setting": "PLpro from SARS-CoV-2", "result": 690, "unit": "nM"}, {"measurement": "inhibition at 10 µM", "setting": "PLpro from SARS-CoV-2; [5]", "result": "> 50", "unit": "%"}, {"measurement": "IC50", "setting": "Nsp3^core [1]", "result": 660, "unit": "nM"}, {"measurement": "selectivity / off-target inhibition in the DUB panel", "setting": "[2]", "result": "inhibited–at different extents–several other human DUBs"}]}
{"molecule": "CC(Cc1ccc(O)c(O)c1)C(C)Cc1ccc(O)c(O)c1", "note": "(stereo not shown) [Nordihydroguaiaretic acid]", "values": [{"measurement": "IC50", "setting": "PLpro from SARS-CoV-2", "result": 1060, "unit": "nM"}, {"measurement": "inhibition at 10 µM", "setting": "PLpro from SARS-CoV-2; [5]", "result": "> 50", "unit": "%"}, {"measurement": "IC50", "setting": "Nsp3^core [1]", "result": 1620, "unit": "nM"}]}
{"molecule": "NbSL18, recombinant, purified from bacteria (VHH) VHH: QVQLQESGGGLVQAGGSLRLSCAASGSIFLPGFMGWYRQAPGKERELVASITPGTTTNYADSVKGRFTISRDNAKNTVYLQMNSLKPEDTAVYYCAAYVFVYRNYWGQGTQVTVSS", "values": [{"measurement": "Kd", "setting": "[4]", "result": "~500", "unit": "nM"}]}
